The record followed here is patent US10519152B2, “Compounds and their use in treating cancer” (AstraZeneca AB, priority 2017, dated 2019).

This experiment addresses T1, recombinant human Estrogen Receptor alpha ligand binding domain, residues 307-554 (ER alpha-LBD (GST)) (Homo sapiens, UniProt P03372).
T1 construct: made in house
T1 sequence (P03372 307-554): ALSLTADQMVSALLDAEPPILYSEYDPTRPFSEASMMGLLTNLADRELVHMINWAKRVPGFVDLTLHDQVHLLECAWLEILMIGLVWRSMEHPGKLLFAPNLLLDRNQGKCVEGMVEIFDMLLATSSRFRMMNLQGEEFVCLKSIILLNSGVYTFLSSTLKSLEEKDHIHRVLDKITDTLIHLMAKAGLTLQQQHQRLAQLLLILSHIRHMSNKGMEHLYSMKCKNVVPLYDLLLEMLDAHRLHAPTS
As to the kind of experiment: ERα binding assay (LanthaScreen TR-FRET competition). The following applies: TR-FRET competition with Fluormone ES2 tracer, 4 hours at room temperature; single experiment or average of two or more. Background: Time-resolved FRET reads energy transfer from a long-lived donor to a nearby acceptor.

For orientation: IC50 means the midpoint of a concentration-inhibition curve. Consider `Cc1ncsc1-c1ccc(CNC(=O)[C@@H]2C[C@@H](O)CN2C(=O)[C@@H](NC(=O)COCCCCCN(C)CCOc2cc(F)c([C@@H]3c4[nH]c5ccccc5c4C[C@@H](C)N3CC(C)(C)F)c(F)c2)C(C)(C)C)cc1` [Example 49, (2S,4R)-1-((S)-2-(2-((5-((2-(3,5-difluoro-4-((1R,3R)-2-(2-fluoro-2-methylpropyl)-3-methyl-2,3,4,9-tetrahydro-1H-pyrido[3,4-b]indol-1-yl)phenoxy)ethyl)(methyl)amino)pentyl)oxy)acetamido)-3,3-dimethylbutanoyl)-4-hydroxy-N-(4-(4-methylthiazol-5-yl)benzyl)pyrrolidine-2-carboxamide], for which the IC50 is 1 nM. The value for `Cc1ncsc1-c1ccc(CNC(=O)[C@@H]2C[C@@H](O)CN2C(=O)[C@@H](NC(=O)COCCCCCCOc2cc(F)c([C@@H]3c4[nH]c5ccccc5c4C[C@@H](C)N3CC(C)(C)F)c(F)c2)C(C)(C)C)cc1` [Example 51, (2S,4R)-1-((S)-2-(2-((6-(3,5-difluoro-4-((1R,3R)-2-(2-fluoro-2-methylpropyl)-3-methyl-2,3,4,9-tetrahydro-1H-pyrido[3,4-b]indol-1-yl)phenoxy)hexyl)oxy)acetamido)-3,3-dimethylbutanoyl)-4-hydroxy-N-(4-(4-methylthiazol-5-yl)benzyl)pyrrolidine-2-carboxamide] was 2 nM; that for `Cc1ncsc1-c1ccc(CNC(=O)[C@@H]2C[C@@H](O)CN2C(=O)[C@@H](NC(=O)COCCc2ccc(COc3cc(F)c([C@@H]4c5[nH]c6ccccc6c5C[C@@H](C)N4CC(C)(C)F)c(F)c3)cc2)C(C)(C)C)cc1` [Example 53, (2S,4R)-1-((S)-2-(2-(4-((3,5-difluoro-4-((1R,3R)-2-(2-fluoro-2-methylpropyl)-3-methyl-2,3,4,9-tetrahydro-1H-pyrido[3,4-b]indol-1-yl)phenoxy)methyl)phenethoxy)acetamido)-3,3-dimethylbutanoyl)-4-hydroxy-N-(4-(4-methylthiazol-5-yl)benzyl)pyrrolidine-2-carboxamide] was 1 nM. The result for `Cc1ncsc1-c1ccc(CNC(=O)[C@@H]2C[C@@H](O)CN2C(=O)[C@@H](NC(=O)COCCOCCOCCOCCOCCOCC(=O)Nc2ccc([C@@H]3c4[nH]c5ccccc5c4C[C@@H](C)N3CC(C)(C)F)cc2)C(C)(C)C)cc1` [Example 54, N^1-(4-((1R,3R)-2-(2-fluoro-2-methylpropyl)-3-methyl-2,3,4,9-tetrahydro-1H-pyrido[3,4-b]indol-1-yl)phenyl)-N^18—((S)-1-((2S,4R)-4-hydroxy-2-(4-(4-methylthiazol-5-yl)benzylcarbamoyl)pyrrolidin-1-yl)-3,3-dimethyl-1-oxobutan-2-yl)-2,5,8,11,14,17-hexaoxaoctadecane-1,18-dicarboxamide, Trifluoroacetic Acid] reads 16 nM; that for `Cc1ncsc1-c1ccc(CNC(=O)[C@@H]2C[C@@H](O)CN2C(=O)[C@@H](NC(=O)COCCOCCOCCOc2cc(F)c([C@@H]3c4[nH]c5ccccc5c4C[C@@H](C)N3C[C@H](C)CO)c(F)c2)C(C)(C)C)cc1` [Example 101, (2S,4R)-1-((S)-2-(tert-butyl)-14-(3,5-difluoro-4-((1R,3R)-2-((S)-3-hydroxy-2-methylpropyl)-3-methyl-2,3,4,9-tetrahydro-1H-pyrido[3,4-b]indol-1-yl)phenoxy)-4-oxo-6,9,12-trioxa-3-azatetradecanoyl)-4-hydroxy-N-(4-(4-methylthiazol-5-yl)benzyl)pyrrolidine-2-carboxamide], 3.3 nM; that for `Cc1ncsc1-c1ccc([C@@H](CN)NC(=O)[C@@H]2C[C@@H](O)CN2C(=O)[C@@H](NC(=O)COCCOCCOCCOc2cc(F)c([C@@H]3c4[nH]c5ccccc5c4C[C@@H](C)N3CC(C)(C)F)c(F)c2)C(C)(C)C)cc1` [Example 106, (2S,4R)—N-[(1S)-2-amino-1-[4-(4-methylthiazol-5-yl)phenyl]ethyl]-1-[(2S)-2-[[2-[2-[2-[2-[3,5-difluoro-4-[(1R,3R)-2-(2-fluoro-2-methyl-propyl)-3-methyl-1,3,4,9-tetrahydropyrido[3,4-b]indol-1-yl]phenoxy]ethoxy]ethoxy]ethoxy]acetyl]amino]-3,3-dimethyl-butanoyl]-4-hydroxy-pyrrolidine-2-carboxamide], 0.8 nM.

As for `Cc1ncsc1-c1ccc([C@@H](CN(C)C)NC(=O)[C@@H]2C[C@@H](O)CN2C(=O)[C@@H](NC(=O)COCCOCCOCCOc2cc(F)c([C@@H]3c4[nH]c5ccccc5c4C[C@@H](C)N3CC(C)(C)F)c(F)c2)C(C)(C)C)cc1` [Example 107, (2S,4R)-1-[(2S)-2-[[2-[2-[2-[2-[3,5-Difluoro-4-[(1R,3R)-2-(2-fluoro-2-methyl-propyl)-3-methyl-1,3,4,9-tetrahydropyrido[3,4-b]indol-1-yl]phenoxy]ethoxy]ethoxy]ethoxy]acetyl]amino]-3,3-dimethyl-butanoyl]-N-[(1S)-2-(dimethylamino)-1-[4-(4-methylthiazol-5-yl)phenyl]ethyl]-4-hydroxy-pyrrolidine-2-carboxamide], the IC50 turned out to be 4 nM. The value for `Cc1ncsc1-c1ccc(CNC(=O)[C@@H]2C[C@@H](O)CN2C(=O)[C@@H](NC(=O)CCCCCOCCCCOc2cc(F)c([C@@H]3c4[nH]c5ccccc5c4C[C@@H](C)N3CC(C)(C)F)c(F)c2)C(C)(C)C)cc1` [Example 109, (2S,4R)-1-((S)-2-(6-(4-(3,5-difluoro-4-((1R,3R)-2-(2-fluoro-2-methylpropyl)-3-methyl-2,3,49-tetrahydro-1H-pyrido[3,4-b]indol-1-yl)phenoxy)butoxy)hexanamido)-3,3-dimethylbutanoyl)-4-hydroxy-N-(4-(4-methylthiazol-5-yl)benzyl)pyrrolidine-2-carboxamide] was 0.6 nM; that for `Cc1ncsc1-c1ccc(CNC(=O)[C@@H]2C[C@@H](O)CN2C(=O)[C@@H](NC(=O)CCCCCCOCCCOc2cc(F)c([C@@H]3c4[nH]c5ccccc5c4C[C@@H](C)N3CC(C)(C)F)c(F)c2)C(C)(C)C)cc1` [Example 110, (2S,4R)-1-((S)-2-(7-(3-(3,5-difluoro-4-((1R,3R)-2-(2-fluoro-2-methylpropyl)-3-methyl-2,3,4,9-tetrahydro-1H-pyrido[3,4-b]indol-1-yl)phenoxy)propoxy)heptanamido)-3,3-dimethylbutanoyl)-4-hydroxy-N-(4-(4-methylthiazol-5-yl)benzyl)pyrrolidine-2-carboxamide] was 0.7 nM; that for `Cc1ncsc1-c1ccc(CNC(=O)[C@@H]2C[C@@H](O)CN2C(=O)[C@@H](NC(=O)CCCCCCCOCCOc2cc(F)c([C@@H]3c4[nH]c5ccccc5c4C[C@@H](C)N3CC(C)(C)F)c(F)c2)C(C)(C)C)cc1` [Example 111, (2S,4R)-1-((S)-2-(8-(2-(3,5-Difluoro-4-((1R,3R)-2-(2-fluoro-2-methylpropyl)-3-methyl-2,3,4,9-tetrahydro-1H-pyrido[3,4-b]indol-1-yl)phenoxy)ethoxy)octanamido)-3,3-dimethylbutanoyl)-4-hydroxy-N-(4-(4-methylthiazol-5-yl)benzyl)pyrrolidine-2-carboxamide] was 0.6 nM.
